Active and inactive are the calls of the source.
How the values were obtained:
Cytochrome P450 2C9 = Cytochrome P450 2C9 (Homo sapiens, UniProt P11712)
Cytochrome P450 3A4 = Cytochrome P450 3A4 (Homo sapiens, UniProt P08684);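 note: CYP3A4 tested as one member of a cytochrome P450 panel screen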
[1] = activation of miR-122 Renilla sensor silencing – cell-based, Huh7 psiCHECK-miR122, Renilla luciferase, cherry-picked, dose response (AID 651956); format: functional;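 note: huh7 hepatoma cells stably carrying a psiCHECK-2 miR-122 sensor plasmid; renilla luciferase signal reporting endogenous miR-122 activity after 48 h compound exposure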
[2] = NIH3T3 cell viability loss – ATP luminescence, mouse fibroblasts, counter-screen, dose response (AID 2010); format: functional, cell-based;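 note: cells exposed to compound for about 90 hours before reading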
Vero [3] = assay: cells; format: functional, cell-based; settings: Chlorocebus sabaeus
[4] = Trypanosoma cruzi growth suppression in host cells – NIH3T3 host cells, beta-gal luminescence, confirmation (AID 2044); format: functional, cell-based;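 note: intracellular parasites grown in NIH/3T3 mouse fibroblasts as host cells; luminescent beta-galactosidase reporter signal from transgenic T. cruzi replicating inside host cells; inhibitors lower the luminescence signal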
Vero [5] = assay: cells; format: functional; settings: Chlorocebus sabaeus
Cytochrome P450 2C19 = Cytochrome P450 2C19 (Homo sapiens, UniProt P33261); assay: Cytochrome panel assay with activity outcomes. Panel member name: p450-cyp2c19 Compounds with AC50 equal or less than 10 uM are considered active; format: functional; settings: read-out: AC50
[6] = target: T1, Orexin/Hypocretin receptor type 1 (Homo sapiens, UniProt O43613); assay: (§1) Fluorescence-based cell-based high throughput dose response assay for antagonists of the orexin 1 receptor (OX1R; HCRTR1). [Related pubchem assays (depositor defined):AID434989, AID435008, AID463079, AID485270, AID492963, AID492964, AID492965, AID493232, AID504717, AID504718]; format: functional
T1 sequence (O43613 whole entry): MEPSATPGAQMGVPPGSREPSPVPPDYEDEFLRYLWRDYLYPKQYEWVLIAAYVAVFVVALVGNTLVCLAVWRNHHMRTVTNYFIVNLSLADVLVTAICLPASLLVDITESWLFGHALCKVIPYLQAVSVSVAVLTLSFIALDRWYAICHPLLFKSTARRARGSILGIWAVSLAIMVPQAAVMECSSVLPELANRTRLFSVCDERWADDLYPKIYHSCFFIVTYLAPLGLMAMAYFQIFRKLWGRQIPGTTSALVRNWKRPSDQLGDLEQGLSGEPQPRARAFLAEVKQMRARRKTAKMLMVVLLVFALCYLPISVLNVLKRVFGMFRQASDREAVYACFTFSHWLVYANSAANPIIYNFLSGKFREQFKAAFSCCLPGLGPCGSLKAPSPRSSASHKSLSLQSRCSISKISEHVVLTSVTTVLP

CHO-K1 = assay: (§2) Counterscreen for antagonists of the orexin 1 receptor (OX1R; HCRTR1): Homogeneous time resolved fluorescence (HTRF)-based cell-based dose response assay to identify antagonists of the parental CHO-K1 cell line. [Related pubchem assays (depositor defined):AID434989, AID435008, AID463079, AID485270, AID492963, AID492964, AID492965, AID493232, AID504699, AID504701]; format: functional; settings: Cricetulus griseus
Orexin receptor type 2 [7] = target: T2, Orexin receptor type 2 (Homo sapiens, UniProt O43614); assay: Counterscreen assay for antagonists of the orexin 1 receptor (OX1R; HCRTR1): Fluorescence-based cell-based dose response assay for antagonists of the orexin 2 receptor (OX2R; HCRTR2), run by assay provider.; format: functional
T2 sequence (O43614 whole entry): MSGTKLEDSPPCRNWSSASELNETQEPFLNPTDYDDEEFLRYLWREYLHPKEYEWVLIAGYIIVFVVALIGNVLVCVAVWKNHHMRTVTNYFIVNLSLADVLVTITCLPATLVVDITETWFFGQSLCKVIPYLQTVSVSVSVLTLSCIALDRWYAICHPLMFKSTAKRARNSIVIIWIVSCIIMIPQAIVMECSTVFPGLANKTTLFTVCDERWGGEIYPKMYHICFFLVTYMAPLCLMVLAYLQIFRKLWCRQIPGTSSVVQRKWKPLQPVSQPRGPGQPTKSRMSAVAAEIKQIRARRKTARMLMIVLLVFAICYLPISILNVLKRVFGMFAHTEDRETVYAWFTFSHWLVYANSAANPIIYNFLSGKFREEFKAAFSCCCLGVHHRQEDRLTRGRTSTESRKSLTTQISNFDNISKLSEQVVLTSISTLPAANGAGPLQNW

Orexin receptor type 2 [8] = target: T2, Orexin receptor type 2; assay: Counterscreen assay for antagonists of the orexin 1 receptor (OX1R; HCRTR1): Homogeneous Time Resolved Fluorescence (HTRF)-based cell-based dose response assay for antagonists of the orexin 2 receptor (OX2R; HCRTR2), run by assay provider.; format: functional
[9] = target: T1, Orexin/Hypocretin receptor type 1; assay: as §1, with “Homogeneous Time Resolved Fluorescence (HTRF)-based” for “Fluorescence-based”; format: functional
[10] = as §2, with “Fluorescence-based” for “Homogeneous time resolved fluorescence (HTRF)-based”, “cell-based high throughput” for “cell-based”, “CHO” for “CHO-K1”; format: functional
CAAX prenyl protease 2 = target: T3, CAAX prenyl protease 2 (Saccharomyces cerevisiae S288c, UniProt Q03530); format: biochemical
T3 sequence (Q03530 whole entry): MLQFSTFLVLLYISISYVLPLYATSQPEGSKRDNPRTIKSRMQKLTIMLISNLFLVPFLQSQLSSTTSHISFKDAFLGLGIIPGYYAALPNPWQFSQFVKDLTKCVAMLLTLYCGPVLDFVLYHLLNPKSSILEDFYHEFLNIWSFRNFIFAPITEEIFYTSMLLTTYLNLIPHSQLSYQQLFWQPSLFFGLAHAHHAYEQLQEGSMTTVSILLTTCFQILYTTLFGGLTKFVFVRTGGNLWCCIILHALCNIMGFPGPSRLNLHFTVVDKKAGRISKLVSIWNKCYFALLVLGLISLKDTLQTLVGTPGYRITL

[11] = Vero E6 cell cytotoxicity, dose response, cytotoxicity control for non-replicating M. tuberculosis project, secondary assay (AID 492998); format: functional, VeroE6; settings: Vero C1008
cells = format: functional
[12] = target: T4, Microphthalmia-associated transcription factor (Homo sapiens, UniProt O75030); assay: reducers of TRPM1 reporter luminescence, concentration series – cell-based, SK-MEL-5, cherry-picked, set 3, MITF inhibitor project, dose response (AID 493073); format: functional;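 note: SK-MEL-5 melanoma cells with luciferase driven by the MITF target TRPM1 promoter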
T4 sequence (O75030 whole entry): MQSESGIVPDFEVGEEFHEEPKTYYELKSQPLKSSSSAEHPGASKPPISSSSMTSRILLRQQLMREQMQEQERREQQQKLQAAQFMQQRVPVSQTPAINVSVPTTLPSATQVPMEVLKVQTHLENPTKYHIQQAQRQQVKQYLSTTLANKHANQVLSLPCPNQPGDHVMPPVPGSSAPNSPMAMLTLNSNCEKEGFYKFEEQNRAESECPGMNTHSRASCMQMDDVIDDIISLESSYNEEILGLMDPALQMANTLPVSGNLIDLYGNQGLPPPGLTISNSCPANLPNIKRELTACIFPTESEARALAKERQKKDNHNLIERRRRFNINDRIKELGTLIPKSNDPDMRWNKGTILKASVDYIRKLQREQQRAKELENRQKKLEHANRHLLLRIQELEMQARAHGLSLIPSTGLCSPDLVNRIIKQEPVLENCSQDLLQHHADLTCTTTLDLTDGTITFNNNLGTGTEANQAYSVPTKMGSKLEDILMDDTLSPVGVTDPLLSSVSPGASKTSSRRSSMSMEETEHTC

[13] = THP-1 cell cytotoxicity, dose response, cytotoxicity control for non-replicating M. tuberculosis project (AID 489025); format: functional

Sequence of Cytochrome P450 2C9 (P11712 whole entry): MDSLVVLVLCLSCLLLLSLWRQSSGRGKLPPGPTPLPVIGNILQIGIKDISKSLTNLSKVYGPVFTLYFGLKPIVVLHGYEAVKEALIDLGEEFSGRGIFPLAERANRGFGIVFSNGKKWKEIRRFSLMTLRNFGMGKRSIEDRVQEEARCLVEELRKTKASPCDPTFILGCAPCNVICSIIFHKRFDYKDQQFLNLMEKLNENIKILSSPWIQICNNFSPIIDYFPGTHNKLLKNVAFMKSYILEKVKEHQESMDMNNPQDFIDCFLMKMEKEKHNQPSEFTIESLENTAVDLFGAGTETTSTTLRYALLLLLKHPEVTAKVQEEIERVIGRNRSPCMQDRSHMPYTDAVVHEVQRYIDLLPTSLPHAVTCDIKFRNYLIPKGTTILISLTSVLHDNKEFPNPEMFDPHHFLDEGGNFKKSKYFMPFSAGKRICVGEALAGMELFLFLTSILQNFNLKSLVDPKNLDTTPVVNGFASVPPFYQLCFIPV
Sequence of Cytochrome P450 3A4 (P08684 whole entry): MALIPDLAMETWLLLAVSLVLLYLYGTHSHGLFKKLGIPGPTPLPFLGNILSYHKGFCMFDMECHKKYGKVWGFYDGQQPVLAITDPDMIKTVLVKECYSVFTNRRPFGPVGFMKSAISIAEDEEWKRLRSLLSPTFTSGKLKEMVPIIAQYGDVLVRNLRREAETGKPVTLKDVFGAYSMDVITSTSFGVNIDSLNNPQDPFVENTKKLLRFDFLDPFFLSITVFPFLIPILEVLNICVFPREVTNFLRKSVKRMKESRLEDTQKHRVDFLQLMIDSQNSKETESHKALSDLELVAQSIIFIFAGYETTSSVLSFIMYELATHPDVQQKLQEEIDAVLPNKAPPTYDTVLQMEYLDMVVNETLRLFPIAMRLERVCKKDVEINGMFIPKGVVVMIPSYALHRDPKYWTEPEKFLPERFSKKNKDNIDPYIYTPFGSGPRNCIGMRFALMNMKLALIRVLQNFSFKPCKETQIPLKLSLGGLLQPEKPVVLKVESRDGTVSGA
Sequence of Cytochrome P450 2C19 (P33261 whole entry): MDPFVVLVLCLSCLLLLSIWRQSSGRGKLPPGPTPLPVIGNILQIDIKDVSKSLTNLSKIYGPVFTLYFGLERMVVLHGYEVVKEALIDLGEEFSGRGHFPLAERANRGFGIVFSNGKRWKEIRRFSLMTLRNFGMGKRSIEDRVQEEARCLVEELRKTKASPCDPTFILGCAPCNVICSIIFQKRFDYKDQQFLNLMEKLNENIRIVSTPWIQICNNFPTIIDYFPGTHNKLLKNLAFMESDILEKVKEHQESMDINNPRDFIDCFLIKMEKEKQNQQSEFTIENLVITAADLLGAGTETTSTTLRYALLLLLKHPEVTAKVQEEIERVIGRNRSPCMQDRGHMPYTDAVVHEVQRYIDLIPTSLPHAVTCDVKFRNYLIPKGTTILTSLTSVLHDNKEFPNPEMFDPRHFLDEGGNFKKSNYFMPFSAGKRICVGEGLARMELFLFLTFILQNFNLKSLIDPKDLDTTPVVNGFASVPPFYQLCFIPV

SMILES: CN1CCN(c2ncncc2-c2ccc(N(C)C)cc2)CC1
- AC50 (Cytochrome P450 2C9): inconclusive
- AC50 (Cytochrome P450 3A4): 2 µM (inconclusive)

SMILES: CN1C(=O)c2cc(NC(=O)c3cccc(F)c3)ccc2OC[C@H]2O[C@H](CC(=O)O)CC[C@H]21
- AC50 [1]: 0.366 µM (active)

SMILES: COc1ccccc1Nc1ncnc2c1c(C)c(C)n2CCCN(C)C
- EC50 [2]: 4.51 µM (active)
- IC50 (Vero [3]): 23.2 µM (active)
- EC50 [4]: 0.156 µM (active)
- CC50 (Vero [5]): > 25 µM (active)

SMILES: COc1cc(NC(=O)C2CCN(S(=O)(=O)c3cccc4nonc34)CC2)cc(OC)c1
- AC50 (Cytochrome P450 2C9): inconclusive
- AC50 (Cytochrome P450 2C19): 15.8 µM (inconclusive)

SMILES: CC[C@]12c3[nH]c4cc(-c5ccco5)ccc4c3CCN1C(=O)[C@@H](CC(=O)NC/C=C(\C)CCC=C(C)C)C[C@@H]2C(=O)N1CCN(C(=O)c2ccco2)CC1
- IC50 [6]: 3.23 µM (active)
- IC50 (CHO-K1): > 66.2 µM (inactive)
- IC50 (Orexin receptor type 2 [7]): 39.5 µM (inactive)
- IC50 (Orexin receptor type 2 [8]): 2.05 µM (active)
- IC50 [9]: 1.07 µM (active)
- IC50 [10]: > 49.8 µM (inactive)

SMILES: CN1C(=O)/C(=C/c2cccc(Cl)c2)Sc2ccc(C(=O)N3CCOCC3)cc21
- AC50 (CAAX prenyl protease 2): 5.96 µM (active)

SMILES: Cc1ccc(-n2nnnc2CNC(=O)c2ccc([N+](=O)[O-])o2)cc1C
- CC50 [11]: 12.1 µM (active)
- EC50 [2]: > 30 µM (not active)
- EC50 [4]: 0.145 µM (active)
- IC50 (cells): 8.5 µM (active)
- AC50 [12]: 9.72 µM (active)
- CC50 [13]: 22.5 µM (active)

SMILES: CCOc1ccccc1-n1nnnc1SCC(=O)Nc1cc(C)on1
- AC50 (Cytochrome P450 2C9): inconclusive
- AC50 (Cytochrome P450 3A4): 3.98 µM (inconclusive)

SMILES: CNc1nc(-c2ccc(N(C)C)cc2)nc2ccccc12
- AC50 (Cytochrome P450 2C9): inconclusive
